# In patent US6911432B2, “Drugs, foods or drinks with the use of algae-derived physiologically active substances” (priority 1997, dated 2005):
# Experiments:
# spleen lymphocytes [1] = experiment: mixed lymphocyte reaction, 3H-thymidine uptake; format: cell-based, BALB/c mouse and C57BL/6 mouse
# Protocol: Spleens were taken out from a BALB/c mouse (Nippon SLC; male, 6 weeks old) and a C57BL/6 mouse (Nippon SLC; male, 6 weeks old) and spleen lymphocytes were obtained by the above-described method. Each cell suspension was adjusted to a concentration of 2×10^6 cell/ml, 100 μl portions from respective suspensions were mixed together and seeded in a 96 well microtiter plate. Agarobiose at varying concentration was added to the wells other than the control well, and the plate was incubated at 37° C. for 4 days in a carbon dioxide incubator. After incubation, 1 μCi of ^3H-thymidine was added to each well, and the plate was incubated for additional 1 day. Its uptake into cells was measured using a liquid scintillation counter.
# That is, FIG. 35 illustrates the relation between the agarobiose concentration and the ^3H-thymidine uptake in the mixed lymphocyte reaction. The horizontal axis represents the agarobiose concentration and the vertical axis represents ^3H-thymidine uptake (cpm). The open bar and the shaded bar represent ^3H-thymidine uptake in case where cells from either one of the lines were used independently, and in case where mixed cells from both of the lines were used, respectively. […] Thus, the inhibitory activity against lymphocyte activation of agarobiose has been recognized.
# spleen lymphocytes [2] = experiment: lymphocyte blastgenesis induced by Concanavalin A, 3H-thymidine uptake; format: cell-based, ddY mouse
# Protocol: A spleen was taken out from a ddY mouse (Nippon SLC; male, 7 weeks old), finely minced and suspended in RPMI-1640 medium (Gibco) containing 10% fetal bovine serum (HyClone) to obtain a single cell suspension. The cell suspension was seeded into a plastic Petri dish, incubated at 37° C. for 2 hours in a carbon dioxide incubator. Adhesive cells adhered to the Petri dish were removed and non-adhesive cells were used as spleen lymphocytes. 200 μl of 2×10^6 cells/ml spleen lymphocytes suspension was seeded into each well of 96 well microtiter plate. Agarobiose at varying concentration was added to the wells other than the control well. Furthermore, to all the wells was added 5 μg of Con A (Nacalai Tesque) and the plate was incubated at 37° C. for one day in a carbon dioxide incubator. After incubation, 1 μCi of ^3H-thymidine was added to each well and incubation was continued for additional one day. Then, its uptake into cells was measured using a liquid scintillation counter.
# FIG. 34 illustrates the relation between the agarobiose concentration and the ^3H-thymidine uptake in lymphocyte blastgenesis induced by Con A. The horizontal axis represents the agarobiose concentration and the vertical axis represents the ^3H-thymidine uptake (cpm). The open bar and the shaded bar represent the ^3H-thymidine uptake without stimulation and with stimulation by Con A, respectively. […]
# HL-60 cells = experiment: apoptosis-inducing assay, cell morphology under an optical microscope; format: cell-based, human
# Protocol: Human promyelocytic leukemia cell HL-60 (ATCC CCL-240) was incubated at 37° C. in RPMI 1640 medium (manufactured by Gibco) supplemented with 10% of fetal bovine serum (JRH Bioscience) which had been treated at 56° C. for 30 minutes, and suspended in the same medium at a concentration of 500 cells/90 μl. Each 90 μl portion of the suspension was distributed into each well of a 96 well plate (manufactured by Falcon). To the suspension in each well was added 10 μl of the above-mentioned acid decomposition solution, a 10-fold dilution of the solution or water, and incubated with 5% CO2 at 37° C. After 24 hour and 48 hour from the initiation of the incubation, the cell morphology was observed under an optical microscope. Then, according to the MTT method described in “Apoptosis Jikken Protocol” (Syuzyun-sha, Tanuma, Seiichi ed., pp. 156 (1994)), 5 mg/ml of 3-(4,5-dimethylthiazole-2-yl)-2,5-diphenyltetrazolium bromide (manufactured by Sigma) and 10 μl of phosphate buffered saline solution were added to the culture and the incubation was continued for additional 4 hours. Then, 100 μl of 2-propanol containing 0.04 N hydrochloric acid was added to the culture, and the mixture was thoroughly stirred. An absorbance at 590 nm was measured and the number of viable cells was calculated from the absorbance measured for each of the wells, which was compared each other.
# Each elution peak was fractionated, collected, evaporated to dryness under reduced pressure and then dissolved in 300 μl of water. Each fraction was sterilized by filtration and its 10 μl portion was placed in a well of a 96 well microtiter plate. Then, 90 μl of RPMI 1640 medium (manufactured by Nissui) containing 10% fetal bovine serum (manufactured by Gibco) and 5,000 HL-60 cells (ATCC CCL-240) was added thereto, followed by incubation at 37° C. for 48 hours with 5% CO2. The cell morphology was observed under an optical microscope. Then, 5 mg/ml 3-(4,5-dimethylthiazole-2-yl)-2,5-diphenyltetrazolium bromide and 10 μl of phosphate buffered saline solution were added thereto and the incubation was continued for additional 4 hours. To the culture was added 100 μl of 2-propanol containing 0.04 N hydrochloric acid and the resultant mixture was thoroughly stirred. The absorbance at 590 nm was measured to determine a cell proliferation rate.
# RAW 264.7 cells = experiment: NO production induced by LPS and IFN-γ after pre-incubation with sample; format: cell-based, mouse; conditions: 10 μl of 5,000 μM solution, pre-incubation 1, 2, 4 or 6 hours before stimulation
# Protocol: (4) RAW 264.7 cells were suspended in the Dulbecco's modified Eagle's medium described in Example 20-(1) at a concentration of 3×10^5 cells/ml, and 500 μl portions thereof were placed in respective wells of a 48 well microtiter plate. The plate was incubated for 37° C. for 10 hours in the presence of 5 % carbon dioxide. To the wells was added 10 μl of aqueous 5,000 μM agarobiose solution and incubated for additional 1, 2, 4 or 6 hours. Then, the culture supernatant was removed from the well and to each well were added 500 μl of fresh Dulbecco's modified Eagle's medium and then 10 μl of aqueous 2.5 μg/ml LPS and aqueous 800 U/ml interferon-Υ (IFN-Υ, sold by Cosmobio, GZM-MG-IFN) solution. The plate was incubated for 1 hour. Then, the culture supernatant was removed from the well and to each well was added 500 μl of fresh Dulbecco's modified Eagle's medium and the plate was incubated for additional 16 hours. The concentration of NO2^− produced by oxidation of NO in the medium was measured according to the same manner as that described in Example 20-(1). As control groups, a group to which neither LPS nor IFN-Υ was added and a group to which agarobiose was not added were provided. All the measurements were carried out in duplicate.
smiles,measurement,setting,value
"OC[C@H]1O[C@@H](O[C@H]2[C@H]3OC[C@@H]2OC(O)[C@H]3O)[C@H](O)[C@@H](O)[C@H]1O (mixture of isomers) [Agarobiose, agarobiose]",inhibitory activity against mixed lymphocyte reaction (in words),spleen lymphocytes [1],dose-dependent inhibitory activity
same,inhibition of lymphocytes activation by stimulation with an alloantigen,spleen lymphocytes [1]; 10 μg/ml,almost completely inhibits
same,inhibitory activity against lymphocyte blastgenesis induced by Con A (in words),spleen lymphocytes [2],dose-dependent inhibitory activity
same,inhibition of mouse lymphocyte proliferation stimulated by mitogen,"spleen lymphocytes [2]; Con A, 100 μg/ml",almost completely inhibits
same,apoptosis corpuscles under an optical microscope,HL-60 cells; 78 μg/ml,apoptosis corpuscles were observed
same,"apoptosis-inducing activity (apoptosis corpuscles, in words)",HL-60 cells; preparations and fractions,had both activities
same,inhibition of NO production induced by LPS and IFN-γ (in words),RAW 264.7 cells,"the longer the pre-incubation time was, the higher the inhibition"
